The target in one assay is T1, Eg5 motor domain (Homo sapiens, UniProt P52732).
T1 sequence (P52732 18-359 limits assumed): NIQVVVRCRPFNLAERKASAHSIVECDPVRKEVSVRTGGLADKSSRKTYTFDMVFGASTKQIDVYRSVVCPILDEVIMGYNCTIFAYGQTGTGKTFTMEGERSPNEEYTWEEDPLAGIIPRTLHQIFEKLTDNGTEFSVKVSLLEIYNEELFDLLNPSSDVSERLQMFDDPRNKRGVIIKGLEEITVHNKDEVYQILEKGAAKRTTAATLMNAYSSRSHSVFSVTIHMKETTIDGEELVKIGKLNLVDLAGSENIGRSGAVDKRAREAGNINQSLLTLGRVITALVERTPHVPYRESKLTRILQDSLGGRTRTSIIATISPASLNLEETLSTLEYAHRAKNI
Description: SPR assay (Biacore T200). It counts as binding. The note with it: for Binding Level (RU): SPR screening. The procedure:
Interactions of the Eg5 motor domain and compounds of interest were analyzed using the Biacore T200 system (GE Healthcare, Uppsala, Sweden) at 25°C. Eg5 motor protein obtained as previously described (51) was immobilized on a sensor chip (CM5) using an amine coupling kit (GE Healthcare, Buckinghamshire, UK). […] For binding studies, analytes were applied at corresponding concentrations in running buffer at a flow rate of 30 μL/minute with a contact time of 60 seconds and a dissociation time of 60 seconds. Chip platforms were washed with running buffer and 50% DMSO. Data were analyzed with Biacore evaluation software (T200 Version 1.0) by curve fitting using a steady state 1:1 binding model and a kinetic model.

For another assay, the system named is human cancer cell lines. Description: Antiproliferation screening of 23 selected compounds (Alamar Blue). It is filed as cell-based. Particulars: proliferation inhibition. The method, then:
(§1) Cytotoxic activities of the compounds of interest were investigated with human cancer cell lines using the Alamar Blue assay. Cells (5 × 10^3 cells/well) were seeded into 96-well plates (Corning, 3603). Various sample concentrations (compounds of interest) were added to each well in duplicate, and incubated at 37°C with 5% CO2 for two days such that cells were in the exponential growth phase at the time of drug addition. Ten microliters of the Alamar Blue Solution (Invitrogen, Alamar Blue) were added to each well and incubated at 37°C for up to 2 hours in a humidified, 5% CO2 atmosphere. After incubation, florescence was measured using a microplate reader (Tecan) at an excitation wavelength of 540 nm and emission of 590 nm. Each inhibitory concentration was measured in triplicate, and averaged data points ± SD are shown. Statistical analysis was carried out with GraphPad Prism 5 and the fifty-percent effective concentration is expressed as EC50.
(Alamar Blue is a resazurin reagent that responds to reducing activity.)

The target in the next assay is Eg5 (Homo sapiens, UniProt P52732). Description: Inhibition of Eg5 ATPase activity. It is filed as biochemical. Particulars: read-out: Enzyme EC50. The procedure:
All experiments were performed as previously described. Data were analyzed using GraphPad Prism 5 and Microsoft Excel to obtain EC50 values. […] Each inhibitory concentration was measured in triplicate, and averaged data points ± SD are shown.

In the next assay the test system is HeLa. Description: Antiproliferation assay (Alamar Blue), HeLa. It counts as cell-based. Particulars: Homo sapiens, 48 h, HeLa cell line, two days. The procedure: as §1
For another assay, the system named is HeLa cells. Description: Colony formation. It counts as cell-based. Particulars: Homo sapiens, exposed 24 hours, cultured 10 days. The procedure: HeLa cells (5 × 10^2 cells/well) were seeded into 6-well plates and were treated with a series of gradient concentrations of YL001 for 24 hours, followed by washing and continual culture for 10 days. DMSO was used as a negative control, and STLC was used as a positive control. Cells were fixed with ethanol for more than 30 minutes and dyed with crystal violet for more than 30 minutes. Clones were counted with OpenCFU [54].

The structures appear in SMILES notation.

Eg5, sequence (P52732 whole entry): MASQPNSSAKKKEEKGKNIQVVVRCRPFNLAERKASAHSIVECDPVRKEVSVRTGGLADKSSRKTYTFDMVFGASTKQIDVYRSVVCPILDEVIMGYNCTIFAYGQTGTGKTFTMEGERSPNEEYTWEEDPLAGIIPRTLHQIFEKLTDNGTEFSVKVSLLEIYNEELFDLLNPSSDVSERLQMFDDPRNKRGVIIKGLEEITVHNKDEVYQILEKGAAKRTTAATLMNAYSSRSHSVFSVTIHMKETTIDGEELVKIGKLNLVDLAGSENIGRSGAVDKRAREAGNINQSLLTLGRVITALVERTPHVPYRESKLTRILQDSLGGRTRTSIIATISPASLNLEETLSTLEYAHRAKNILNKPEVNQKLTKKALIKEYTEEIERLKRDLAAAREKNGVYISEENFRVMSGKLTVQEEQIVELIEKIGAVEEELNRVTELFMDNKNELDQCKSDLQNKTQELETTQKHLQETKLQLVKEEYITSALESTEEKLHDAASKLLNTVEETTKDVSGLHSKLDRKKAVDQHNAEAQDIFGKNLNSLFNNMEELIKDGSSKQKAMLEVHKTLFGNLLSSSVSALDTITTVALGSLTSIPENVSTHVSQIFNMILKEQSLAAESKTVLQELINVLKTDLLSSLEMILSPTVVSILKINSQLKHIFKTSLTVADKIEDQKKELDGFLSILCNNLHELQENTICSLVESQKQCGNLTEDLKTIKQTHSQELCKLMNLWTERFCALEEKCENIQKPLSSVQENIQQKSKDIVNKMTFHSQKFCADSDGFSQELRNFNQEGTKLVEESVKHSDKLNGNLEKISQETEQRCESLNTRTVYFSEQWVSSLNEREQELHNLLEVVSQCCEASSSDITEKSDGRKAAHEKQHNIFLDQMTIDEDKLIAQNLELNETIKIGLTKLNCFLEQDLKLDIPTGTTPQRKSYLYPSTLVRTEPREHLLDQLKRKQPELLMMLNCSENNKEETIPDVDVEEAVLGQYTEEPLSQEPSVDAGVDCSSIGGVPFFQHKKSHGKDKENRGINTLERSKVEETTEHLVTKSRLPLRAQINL

For the compound `CCOC(=O)C1=CN2C(C=C1)C(C(=C(C#N)C#N)C1CC1)C(c1ccccc1)C2C(=O)c1ccccc1` (stereo not drawn) [AG-205/33162003], the “Binding Level (RU)” value on Eg5 motor domain is 32.8 RU. For the same compound, the “Inhibition (50 μM)” value in the assay on human cancer cell lines came out at 60.89%.
The corresponding values for `CC1(C)CC(=O)C2=C(C1)OC(N)=C(C#N)C21C(=O)N(Cc2ccccc2Cl)c2ccccc21` (stereo not drawn) [AM-807/14957480] are 16.3 RU and 30.76%.
On the same counts, the results for `O=[N+]([O-])c1ccc(COc2ccccc2C2N(Cc3ccccc3)CCN2Cc2ccccc2)cc1` [AG-205/14740101] are 27.7 RU and 0.87%.
The corresponding values for `Cc1ccc(/C(O)=C2\C(=N)N(c3ccccc3)C3=C(C(=O)CCC3)C2c2ccccc2)cc1` (stereo not drawn) [AN-919/14547078] are 56.6 RU and 30.07%.
On to `CC(=O)C1=NN(c2ccc(Cl)cc2)C(c2ccc3c(c2)OCO3)N1c1ccccc1` (stereo not drawn) [AK-778/11811129], for which, on Eg5 motor domain, the “Binding Level (RU)” value was found to be 59.8 RU. Further, the “Inhibition (50 μM)” value in the assay with human cancer cell lines amounted to 9.38%.
The corresponding values for `N=C1/C(=C(/O)c2ccccc2)C(c2ccccc2)C2=C(CCCC2=O)N1c1ccc(Br)cc1` (stereo not drawn) [AN-919/14547075] are 69.6 RU and 27.56%.
The corresponding values for `CC(=O)Nc1sc2c(c1C(c1ccc(OC(F)F)cc1)N1CCOCC1)CCCC2` (stereo not drawn) [AF-399/41981012] are 3.8 RU and 14.85%.
The corresponding values for `N#CC1=C(N)Oc2n[nH]c(-c3cccc4ccccc34)c2C1c1cccc(O)c1` (stereo not drawn) [AJ-292/15089069] are 100.1 RU and 58.97%.
For the compound `CCOC(=O)C1C2c3ccccc3C(c3ccccc32)C1C(=O)OCC` (stereo not drawn) [AE-842/33003047], at Eg5 motor domain, the “Binding Level (RU)” value amounted to 14.6 RU. In addition, the “Inhibition (50 μM)” value in the assay with human cancer cell lines was “–30.66%”.
The corresponding values for `OC(COCc1ccc2c(c1)OCO2)CN1CCN(C(c2ccccc2)c2ccccc2)CC1` (stereo not drawn) [AF-399/14739190] are 36.9 RU and 22.02%.
With `CC(=O)C1=NN(c2ccc(C)cc2)C(c2c[nH]c3ccccc23)N1c1ccc(C)cc1` (stereo not drawn) [AN-465/13570058], on Eg5 motor domain, the “Binding Level (RU)” value is given as 7.4 RU. The “Inhibition (50 μM)” value with human cancer cell lines was found to be 98.24%.
Turning to `Cc1ccc(N2C(=N)/C(=C(/O)c3ccccc3)C(c3ccc([N+](=O)[O-])cc3)C3=C2CCCC3=O)cc1Cl` (stereo not drawn) [AN-919/14545008], the “Binding Level (RU)” value on Eg5 motor domain was 57.7 RU. Also, the “Inhibition (50 μM)” value in the assay with human cancer cell lines is on record as 26.79%.
On the same counts, the results for `Cc1ccc(-n2nnnc2/C(=C/N(C)C)C(=O)c2cccc(C(F)(F)F)c2)cc1` [AG-401/37257005] are 18.8 RU and 95.06%.
As for `COc1ccc(C(OCC2OC(n3cnc4c(N)ncnc43)C(O)C2O)(c2ccccc2)c2ccccc2)cc1` (stereo not drawn) [Compound 7170], the EC50 stood at 18000 nM at Eg5 and 13300 ± 1320 nM with HeLa. This compound yielded a Kd at Eg5 motor domain (SPR Biacore T200, 25°C) of 1130 nM.
In the case of `Cc1ccc(C2C3=C(CCCC3=O)N(c3ccc(Br)cc3)C(=N)/C2=C(/O)c2ccccc2)cc1` (stereo not drawn) [AN-919/14547113], the “Binding Level (RU)” value at Eg5 motor domain came to 1.9 RU. The “Inhibition (50 μM)” value in the assay on human cancer cell lines came out at 21.56%.
On the same counts, the results for `Cc1ccc(N=C2S/C(=C/c3ccccc3OCC(=O)N3CCOCC3)C(=O)N2Cc2ccccc2)cc1` [AO-081/41364431] are 56.4 RU and 29.79%.
On the same counts, the results for `CN(C)CCN1C(=O)C(=O)/C(=C(/O)c2ccccc2)C1c1ccc2c(c1)OCO2` (stereo not drawn) [AG-205/13765047] are 3.4 RU and “–18.48%”.
Take `N[C@@H](CSC(c1ccccc1)(c1ccccc1)c1ccccc1)C(=O)O` [STLC, S-Trityl-L-cysteine, reference compound]: in the assay with HeLa, a half-maximal effect (EC50) was put at 1460 ± 60 nM. Moreover, in the assay with HeLa cells, the 50% inhibitory concentration (IC50) turned out to be 1250 nM.
Take `COC(=O)C1NC(c2ccc(F)cc2)(c2ccc(F)cc2)C2C(=O)N(c3ccc(Cl)cc3)C(=O)C12` (stereo not drawn) [AH-487/42271989]: the “Binding Level (RU)” value at Eg5 motor domain came to 31.9 RU. Further, the “Inhibition (50 μM)” value in the assay on human cancer cell lines amounted to 41.63%.
On the same counts, the results for `Cn1cc(C2C(=O)NC(c3ccccc3)=NN2C(=O)c2ccccc2)c2ccccc21` (stereo not drawn) [AG-227/37394007] are 8.7 RU and 97.78%.
The corresponding values for `NC1=C(C(=O)OCc2ccccc2)C2(C(=O)Nc3ccc(Br)cc32)C2=C(CCCC2=O)O1` (stereo not drawn) [AK-777/10805059] are 20.7 RU and 31.51%.
On the same counts, the results for `COC(=O)CN1C(c2ccccc2)=Nc2ccc(Br)cc2C1c1ccccc1` (stereo not drawn) [AG-690/36921098] are 61.1 RU and 21.81%.
For the compound `CCc1cc(C(c2ccccc2F)N2CCOCC2)c(NC(=O)c2ccccc2)s1` (stereo not drawn) [AP-906/42853823], at Eg5 motor domain, the “Binding Level (RU)” value was determined as 60.7 RU. Also, in the assay with human cancer cell lines, the “Inhibition (50 μM)” value came out at 19.16%.
On the same counts, the results for `Cc1ccc(N2C(=O)CSC23C(=O)N(CN2CCN(c4ccccc4)CC2)c2ccccc23)cc1C` (stereo not drawn) [AG-205/13460017] are 44.5 RU and 30.78%.
On the same counts, the results for `Cc1ccc(SC(c2ccccc2)C(Cn2cncn2)C(=O)c2ccc(Br)cc2)cc1` (stereo not drawn) [AQ-714/41675002] are 2.3 RU and 32.65%.

As usually defined, the EC50 is the concentration needed to bring the measured effect to its halfway point. The term Kd denotes the equilibrium constant for the complex coming apart. High values mean a looser complex, low ones a tighter complex. One may read the IC50 as the midpoint of a concentration-inhibition curve. A high value points to weaker potency in that assay.
